These results are taken from patent US5932417A, “Method of screening compounds for controlling capacitative calcium ion entry into mammalian cells” (priority 1996, dated 1999).

The target in experiment [1] is T1, Htrp3 (Homo sapiens, UniProt Q13507).
T1 sequence (Q13507 1-848 isoform Q13507-3): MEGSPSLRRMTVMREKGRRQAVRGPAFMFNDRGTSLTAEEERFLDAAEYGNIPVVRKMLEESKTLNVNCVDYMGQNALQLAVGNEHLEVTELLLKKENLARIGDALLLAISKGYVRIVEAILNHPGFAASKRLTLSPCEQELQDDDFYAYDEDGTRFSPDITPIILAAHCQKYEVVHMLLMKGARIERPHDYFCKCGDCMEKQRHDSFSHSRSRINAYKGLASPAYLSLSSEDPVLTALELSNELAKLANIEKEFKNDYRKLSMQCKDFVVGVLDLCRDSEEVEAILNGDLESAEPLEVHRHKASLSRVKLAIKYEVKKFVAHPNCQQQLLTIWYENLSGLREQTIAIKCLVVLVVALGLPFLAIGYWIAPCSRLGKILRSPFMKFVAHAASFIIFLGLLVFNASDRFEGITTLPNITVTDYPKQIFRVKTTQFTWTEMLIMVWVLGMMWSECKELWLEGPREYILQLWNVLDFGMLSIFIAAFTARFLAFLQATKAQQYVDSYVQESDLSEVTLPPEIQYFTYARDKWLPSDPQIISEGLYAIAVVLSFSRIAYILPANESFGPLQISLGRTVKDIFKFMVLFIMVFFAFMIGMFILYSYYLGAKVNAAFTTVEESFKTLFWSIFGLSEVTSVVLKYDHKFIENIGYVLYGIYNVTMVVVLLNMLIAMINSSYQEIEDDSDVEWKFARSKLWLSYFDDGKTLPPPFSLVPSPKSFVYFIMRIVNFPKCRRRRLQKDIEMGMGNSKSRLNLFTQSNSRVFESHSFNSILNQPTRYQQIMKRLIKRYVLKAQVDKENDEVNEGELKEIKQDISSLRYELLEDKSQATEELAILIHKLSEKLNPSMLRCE
In kind it is cell-based. The arrangement: The full length cDNAs encoding the M5 muscarinic receptor (32), Htrp1 (29), Htrp3 and murine luteinizing hormone receptor; expressed in transfected cells; host or cells: COS-M6.
Description: Intracellular Ca^2+ transients were measured in individual cells by fluorescence videomicroscopy using the Attofluor Digital Imaging and Photometry attachment of a Carl Zeiss Axiovert inverted microscope. Cells (COS-M6 or L) were grown on circular coverslips, rinsed and incubated with 5 μM Fura2/AM (Molecular Probes) in Hepes buffered saline (HPSS: 120 mM NaCl, 5.3 mM KCl, 0.8 mM MgSO4, 1.8 mM CaCl2, 11.1 mM glucose, 20 mM Hepes-Na, pH 7.4) at 37° C. for 30 min and then washed with HPSS twice at room temperature. The coverslips with the cells were then clamped into a circular open-bottom chamber and mounted onto the stage of the microscope. [Ca^2+ ]i in individual cells was monitored at room temperature exciting Fura2 alternatingly at 334 and 380 nm and recording emitted fluorescence at 520 nm. All reagents were diluted to their final concentrations in HPSS and applied to the cells by surface perfusion. […] The system allows data acquisition from up to 99 user-defined variably-sized regions of interest per field of view. Data from 15 to 30 individual cells were thus collected per experiment and experiments were repeated until data from sufficient cells were collected to generate an ensemble average that was calculated after transfer into Microsoft Excel 5.0. […]
For assessment of the rate at which [Ca^2+ ]i falls after an initial stimulation with agonist, t=0 is the time of agonist addition; for assessment of rate of influx of Ca^2+ into cells in which Ca^2+ stores had been depleted by agonist, t=0 is the time of Ca^2+ readdition. t1/2 /values were obtained by fitting the function A=A°exp(-t·ln2/t1/2)+B to the data points shown.
Cells that had been transfected with expression vectors carrying the M5 receptor and, as appropriate, either the newly cloned Htrp3 cDNA or the previously cloned Htrp1 cDNA (29), were grown on coverslips, loaded with the florescent Ca^2+ indicator dye Fura2 and tested for a response to CCh 40-48 hours after transfection. […] Changes in [Ca^2+ ]i as a function of time were recorded from individual cells, averaged and fitted by a first order decay function plus an offset.

In experiment [2] the test system is CCE endogenous to COS cells. In kind it is cell-based.
Description: Intracellular Ca^2+ transients were measured in individual cells by fluorescence videomicroscopy using the Attofluor Digital Imaging and Photometry attachment of a Carl Zeiss Axiovert inverted microscope. Cells (COS-M6 or L) were grown on circular coverslips, rinsed and incubated with 5 μM Fura2/AM (Molecular Probes) in Hepes buffered saline (HPSS: 120 mM NaCl, 5.3 mM KCl, 0.8 mM MgSO4, 1.8 mM CaCl2, 11.1 mM glucose, 20 mM Hepes-Na, pH 7.4) at 37° C. for 30 min and then washed with HPSS twice at room temperature. The coverslips with the cells were then clamped into a circular open-bottom chamber and mounted onto the stage of the microscope. [Ca^2+ ]i in individual cells was monitored at room temperature exciting Fura2 alternatingly at 334 and 380 nm and recording emitted fluorescence at 520 nm. […] Data from 15 to 30 individual cells were thus collected per experiment and experiments were repeated until data from sufficient cells were collected to generate an ensemble average that was calculated after transfer into Microsoft Excel 5.0. […]
For assessment of the rate at which [Ca^2+ ]i falls after an initial stimulation with agonist, t=0 is the time of agonist addition; for assessment of rate of influx of Ca^2+ into cells in which Ca^2+ stores had been depleted by agonist, t=0 is the time of Ca^2+ readdition. t1/2 /values were obtained by fitting the function A=A°exp(-t·ln2/t1/2)+B to the data points shown. […]
The subject of experiment [3] is endogenous TG-stimulated Ca2+ entry of COS cells. The experiment can be described thus: Thapsigargin (store depletion)-stimulated Ca2+ entry in control COS cells. It counts as cell-based. Particulars: 250 μM La3+, 500 nM TG, 1.8 mM Ca2+ added. The procedure: (§1) Intracellular Ca^2+ transients were measured in individual cells by fluorescence videomicroscopy using the Attofluor Digital Imaging and Photometry attachment of a Carl Zeiss Axiovert inverted microscope. Cells (COS-M6 or L) were grown on circular coverslips, rinsed and incubated with 5 μM Fura2/AM (Molecular Probes) in Hepes buffered saline (HPSS: 120 mM NaCl, 5.3 mM KCl, 0.8 mM MgSO4, 1.8 mM CaCl2, 11.1 mM glucose, 20 mM Hepes-Na, pH 7.4) at 37° C. for 30 min and then washed with HPSS twice at room temperature. The coverslips with the cells were then clamped into a circular open-bottom chamber and mounted onto the stage of the microscope. [Ca^2+ ]i in individual cells was monitored at room temperature exciting Fura2 alternatingly at 334 and 380 nm and recording emitted fluorescence at 520 nm. All reagents were diluted to their final concentrations in HPSS and applied to the cells by surface perfusion. The duration of exposure to each reagent mixture is indicated by the horizontal lines above the graphs depicting the changes in [Ca^2+ ]i as a function of time. […] Data from 15 to 30 individual cells were thus collected per experiment and experiments were repeated until data from sufficient cells were collected to generate an ensemble average that was calculated after transfer into Microsoft Excel 5.0. […]

Experiment [4] has as its target T1, Htrp3. As to the kind of experiment: Thapsigargin (store depletion)-stimulated Ca2+ entry in Htrp3-transfected COS cells. The settings on record: 250 μM La3+; 500 nM TG, 1.8 mM Ca2+ added. In kind it is cell-based. Also noted: The full length cDNAs encoding the M5 muscarinic receptor (32), Htrp1 (29), Htrp3 and murine luteinizing hormone receptor; expressed in transfected cells; host or cells: COS-M6. The procedure: as §1

The test system of experiment [5] is M5 muscarinic receptor. As to the kind of experiment: Carbachol-induced capacitative Ca2+ influx in Ltk- cell lines expressing the M5 receptor (Fura2). In kind it is cell-based. Particulars: control Ltk- cell lines with M5 receptor only; average±SD, 20 cells each of 5 clones. The procedure: Mouse fibroblast Ltk^- cells (3×10^6 cells/100 mm dish) were transfected by the calcium phosphate/glycerol shock method with 5 μg each of the plasmids with the antisense cDNAs and 0.5 μg of the pcDNA3 carrying the M5 receptor. The control cells received only the M5 muscarinic receptor cDNA in pcDNA3. One day after transfection, the cells were trypsinized and diluted with Minimum Essential Medium--α medium containing 10% heat-inactivated fetal bovine serum, 50 units/ml penicillin, 50 μg/ml streptomycin, and 400 μg/ml G418 (GIBCO). Serial 1:4 dilutions of the cells were transferred into 96-well plates and G418 resistant clones were allowed to develop for two weeks in the G41 8-containing medium. Single colonies were then expanded and the cells used for Fura2 fluorescence measurement of muscarinic receptor induced [Ca^2+ ]i transients. […]
Intracellular Ca^2+ transients were measured in individual cells by fluorescence videomicroscopy using the Attofluor Digital Imaging and Photometry attachment of a Carl Zeiss Axiovert inverted microscope. […] [Ca^2+ ]i in individual cells was monitored at room temperature exciting Fura2 alternatingly at 334 and 380 nm and recording emitted fluorescence at 520 nm. […]

Experiment [6] concerns the target T1, Htrp3. The experiment can be described thus: Maitotoxin-stimulated Ca2+ influx into HEK 293 cells expressing Htrp3 versus control cells. In kind it is cell-based. Also noted: expressed in transfected cells. Particulars: HEK 293 cells (FIG. 3). The source says: (§2) Trp proteins can be expressed in cells by standard recombinant means such as described in Innamoratti et al. (57), Gudermann et al. (58), Zhu et al. (59) and Ca^2+ influx monitored in single cells as described in Zhu et al. (30) or in a population of cells as described in Liao et al. (32). By doing this in the absence and presence of test compounds of which the effect on trp-mediated CCE can then be determined. An example is shown below (FIGS. 1 and 2) where human embryonic kidney cells (HEK-293 cells) expressing Htrp3 in stable form (HEKt3-9) are stimulated with carbachol and CCE is measured upon readdition of Ca^2+ to the extracellular medium. […] Not only agents that block calcium entry due to trp expression but also agents that stimulate calcium entry due to trp can be monitored in this way.
(§3) In the above examples, cell were suspended in extracellular solution at a concentration of 20×10^6 cells/ml, loaded with Fura2AM (5 μM, 30 min), washed with solution nominally free of calcium, twice, and suspended at 2×10^6 cells/ml. Intracellular Ca^2+ concentrations were then monitored as described in Liao et al (32). Times and concentrations of additions are depicted by the bars in the Figures. Control cells were HEK 293 cells expressing an unrelated protein. For further details see references 32 and 30. […]

Experiment [7] has as its system M5 muscarinic receptor. The experiment can be described thus: Carbachol-induced [Ca2+]i plateau in COS-M6 cells transfected with M5 receptor. The settings on record: extracellular Ca2+ present. It counts as cell-based. The procedure:
COS-M6 cells were transfected by the DEAE-dextran/chloroquine shock method (14) as described (30) with changes. Sixteen hours prior to transfection, COS-M6 cells that had been kept subconfluent were plated at a density of 2×10^5 cells/well onto 25 mm glass coverslips placed at the bottom of the wells of 6-well plates. Cells in the individual wells were then transfected with 160 μl of transfection mixture (30) containing 0.1 μg pcDNA3 with the M5 receptor cDNA, a three fold molar excess of pcDNA3 vector carrying either the Htrp3, Htrp1 or mLHR cDNA to bring the final concentration of DNA to 4 μg/ml. Cell were used 40 to 48 hours after transfection.
Intracellular Ca^2+ transients were measured in individual cells by fluorescence videomicroscopy using the Attofluor Digital Imaging and Photometry attachment of a Carl Zeiss Axiovert inverted microscope. […] [Ca^2+ ]i in individual cells was monitored at room temperature exciting Fura2 alternatingly at 334 and 380 nm and recording emitted fluorescence at 520 nm. […] Data from 15 to 30 individual cells were thus collected per experiment and experiments were repeated until data from sufficient cells were collected to generate an ensemble average that was calculated after transfer into Microsoft Excel 5.0. […]

Experiment [8] has as its target T1, Htrp3. The experiment can be described thus: Carbachol-stimulated CCE upon Ca2+ readdition in HEK-293 cells stably expressing Htrp3 (HEKt3-9). In kind it is cell-based. The settings on record: 25 μM SKF 96365, HEKt3-9 cells, Ca2+ readdition (FIG. 2). The arrangement: expressed in transfected cells.
Description: as §2, §3

The test system of experiment [9] is CCE endogenous to the HEK 293 cell. The experiment can be described thus: Carbachol-stimulated endogenous CCE in control HEK 293 cells. It counts as cell-based, human. Particulars: 25 μM SKF 96365.
Description: as §2, §3

“Also recorded” adds a separate entry of the source.

Take `[Ni+2]` [Ni^2+, nickel]: the “Inhibition of CCh-stimulated influx due to Htrp3” value on Htrp3 [1] (2 mM Ni2+, Htrp3-transfected COS cells) was found to be 20%. Moreover, the “Block of Ca2+ influx in Htrp3 cells” value on Htrp3 [1] (10 mM Ni2+, Htrp3-transfected COS cells) was determined as 85%. In [2] (2 mM Ni2+, COS cells), the “Block of endogenous CCh-stimulated CCE” value is listed as above 90%.
In the case of `[La+3]` [La^3+, lanthanum], the “Block of TG-stimulated Ca2+ entry” value in [3] is above 80%. Moreover, the “Effect on TG-stimulated Ca2+ entry into Htrp3 transfected cells” value at Htrp3 [4] was “significant residual”. Besides, the “Block of the difference due to Htrp3 influx” value at Htrp3 [1] (250 μM La3+, Htrp3-transfected COS cells) is 30-40%. The “Inhibition of Htrp3-stimulated Ca2+ influx” value on Htrp3 [1] (1 mM La3+, COS-M6 cells, CCh-stimulated, Ca2+ readdition) is “fully inhibited”. The “Block of endogenous Ca2+ influx” value in experiment [2] (250 μM La3+, COS cells, agonist-stimulated) is 80-90%. Also, the “Inhibition of CCE endogenous to COS cells” value in [2] (1 mM La3+, CCh-stimulated, Ca2+ readdition) is “fully inhibited”.
For `C[N+](C)(C)CCOC(N)=O` [CCh, carbachol], in the experiment with M5 muscarinic receptor [5], the “Increase of [Ca2+]i through the capacitative influx path (at Ca2+ addition vs 30 sec later)” value worked out at 96 ± 5 nM.
With maitotoxin, the “Maitotoxin-stimulated Ca2+ influx, Htrp3-expressing cells versus control cells” value at Htrp3 [6] was “several fold larger”.
Turning to `CN1[C@@H]2CC[C@H]1C[C@@H](OC(=O)C(CO)c1ccccc1)C2` (some centres unmarked) [atropine], in the experiment with M5 muscarinic receptor [7], the “Effect on carbachol-maintained [Ca2+]i plateau” value is recorded as “blocked”.
Turning to `COc1ccc(CCCOC(Cn2ccnc2)c2ccc(OC)cc2)cc1` (centres unmarked) [SKF 96365], the “Block of CCE due to Htrp3 (extra-CCE)” value on Htrp3 [8] is “blocks selectively; also recorded: blocked”. Also, in experiment [9], the “Sensitivity of CCE endogenous to the HEK 293 cell (control)” value is on record as “much less sensitive”.
